One test has as its system human CRC cell lines. Briefly: Follow-up viability screening (MultiTox Glo, sulforhodamine B). Type of test: cell-based. To be noted: four human CRC cell lines; 48 hrs; MultiTox Glo. The protocol: (§1) Viability was evaluated using a commercially available chemiluminescent reagents (CellTiter-Glo, Promega Corp. G7572; MultiTox Glo, Promega Corp. G9270) in 96-well plate format according to the manufacturers protocol. […] Subsequently, CellTiter-Glo reagent was added and the plates were read using a plate reader (BioTek Synergy 4) with standard settings. Each set of conditions was replicated at least three times, technically and biologically. Error is reported as standard deviation (SD). The sulforhodamine B assay was run analogously to the above assays as previously described^19.

Test [1] relates to pERK in HCC1806 and HT29 cells. The test is described as follows: AlphaScreen SureFire pERK assay. To be noted: 48 h. It counts as cell-based, human. The procedure:
Detection of activated ERK in cell lysates was enabled by the AlphaScreen SureFire ERK assay (Perkin Elmer) according to the manufacturers protocol. Cells were plated in 96-well plates for 24 hours prior to the assay.
(Bead proximity is the source of the signal in Alpha formats.)

The test system of another test is HT29 cells. The test is described as follows: Glutathione and reactive oxygen species in HT29 cells. It counts as cell-based, human. To be noted: 48 h. The protocol: Glutathione levels were measured using a commercially available kit (Cayman Chemical 703002) according to the manufacturers protocol. Concurrently ROS was measured in cells using CM-H2DCFDA (Life Technologies C6827) coupled with flow cytometry in accordance with the manufacturers protocol. The assay was replicated replicated at least three times, technically and biologically. Significance was calculated using a t-test in Graphpad Prism. Error is reported as standard deviation (SD).

For the next test, the system named is HCC1806 and HT29 cells. The test is described as follows: Autophagic flux (CYTO-ID). It counts as cell-based, human. To be noted: single agent. The protocol: Autophagic flux was measure using the CYTO-ID autophagy detection kit (Enzo Life Sciences ENZ-51031). HCC1806 and HT29 cells were seeded in 96 well plates the day before the experiment. […] Following treatment, cells were gently washed with assay buffer followed by addition of the dual color detection solution and incubation at 37° C. for 30 min. The plate was analyzed on a fluorescence microplane reader (BioTek Synergy 4).

For a further test, the system named is HT29 and HCT-116 cells. Briefly: Cell viability with or without chloroquine. The settings on record: 48 h. Type of test: cell-based, human. The procedure:
as §1

For test [2], the system named is human CRC organoids A-007 and A-008. Briefly: Human CRC organoid viability assay. It counts as cell-based. The settings on record: V-9302 25 μM or CB-839 35 μM, 96 h. The protocol:
Human CRC-derived organoids were prepared as reported method with modification^41. Briefly, specimens from freshly resected tumors were minced and digested with 2 mg/ml type 2 collagenase (Worthington, N.J., USA). Samples were passed through 40 µm filters (Greiner Bio One, NC, USA) and epithelial cells trapped on the filters were embed in Matrigel (Corning, MA, USA) and cultured with advanced DMEM/F12 supplemented with N2 and B27 supplements (Thermo Fischer, MA, USA), 50 ng/ml rhEGF (R&D systems, MN, USA) and 1% antibiotic-antimycotic (Corning). For viability assay, organoids were dissociated by TrypLE express (Thermo Fischer) and suspended in Matrigel. […] After 4 days of culture, images of the organoids in Matrigel were captured and the number of viable cells were quantified with CellTiter Aqueous One Cell Proliferation Assay kit (Promega, WI, USA) and a Synergy 4 plate reader (BioTek, VT, USA). The assay was replicated at least three times, technically and biologically. Significance was calculated using a t-test in Graphpad Prism. Error is reported as standard deviation (SD).

The target in test [3] is ASCT2 (Rattus norvegicus (Rat), UniProt D3ZJ25). The test is described as follows: Inhibition of ASCT2-mediated glutamine uptake in C6 (rat) cells. It counts as cell-based. The settings on record: for IC50: C6 (rat) cells, glutamine uptake, mean of at least 3 biological replicates; for preference for blocking glutamine transport in rat vs human cell line: C6 (rat) vs HEK293 (human).
Chain of ASCT2 (Rattus norvegicus (Rat), UniProt D3ZJ25) (D3ZJ25 whole entry): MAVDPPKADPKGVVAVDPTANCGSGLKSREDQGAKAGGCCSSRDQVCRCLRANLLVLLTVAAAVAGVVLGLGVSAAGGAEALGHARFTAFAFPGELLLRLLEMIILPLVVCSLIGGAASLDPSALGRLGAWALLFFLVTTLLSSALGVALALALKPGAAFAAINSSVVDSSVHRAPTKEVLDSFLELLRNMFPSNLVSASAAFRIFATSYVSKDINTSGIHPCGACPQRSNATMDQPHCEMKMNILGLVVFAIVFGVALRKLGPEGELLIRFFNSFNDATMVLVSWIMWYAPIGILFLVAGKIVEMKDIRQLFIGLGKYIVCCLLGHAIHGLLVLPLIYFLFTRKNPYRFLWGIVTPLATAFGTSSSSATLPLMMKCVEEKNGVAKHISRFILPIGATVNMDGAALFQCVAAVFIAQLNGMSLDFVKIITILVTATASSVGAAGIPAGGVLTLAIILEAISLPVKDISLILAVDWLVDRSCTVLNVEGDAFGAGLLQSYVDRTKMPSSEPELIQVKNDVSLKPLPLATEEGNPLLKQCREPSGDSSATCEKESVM

Test [4] deals with ASCT2 (Homo sapiens (Human), UniProt Q15758). The test is described as follows: Inhibition of ASCT2-mediated 3H-glutamine uptake in live HEK293 (human) cells. It counts as cell-based.
Chain of ASCT2 (Homo sapiens (Human), UniProt Q15758) (Q15758 whole entry): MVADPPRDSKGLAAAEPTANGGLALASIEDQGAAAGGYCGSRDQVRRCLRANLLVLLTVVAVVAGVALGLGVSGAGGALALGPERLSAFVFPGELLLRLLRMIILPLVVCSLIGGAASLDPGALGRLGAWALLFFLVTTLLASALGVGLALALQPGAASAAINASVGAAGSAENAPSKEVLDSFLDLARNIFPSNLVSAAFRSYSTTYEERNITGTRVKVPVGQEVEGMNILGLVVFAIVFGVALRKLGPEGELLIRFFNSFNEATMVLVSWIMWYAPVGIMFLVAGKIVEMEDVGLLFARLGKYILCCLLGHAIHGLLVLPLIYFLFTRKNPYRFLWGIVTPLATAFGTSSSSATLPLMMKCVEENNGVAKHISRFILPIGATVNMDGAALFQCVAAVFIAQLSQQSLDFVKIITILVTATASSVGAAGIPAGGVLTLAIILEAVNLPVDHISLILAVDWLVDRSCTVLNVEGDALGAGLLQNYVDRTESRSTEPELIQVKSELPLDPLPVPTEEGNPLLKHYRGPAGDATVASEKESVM
Description: Live-cell amino acid uptake assays using HEK293 cells were carried out in 96-well plates (CulturPlate-96, Perkin Elmer). 96-well plates were coated with poly-D-lysine prior to the assay. Cells were plated at a density of 35,000 cells per well 24 h prior to carrying out the assay. Each set of conditions was replicated at least three times, technically and biologically. […] For ASCT2-mediated ^3H-glutamine uptake assays, 5 mM of the system-L inhibitor 2-amino-2-norbornanecarboxylic acid (BCH) was added and the assay buffer was adjusted to pH 6.0. For selectivity studies, no BCH was added and the assay was conducted at pH 7.4. Following the incubation period, the ^3H-glutamine/inhibitor was removed and the cells were washed three times with assay buffer. The cells were then lysed by the addition of 50 μL of 1 M NaOH. For reading, 150 μL of scintillation fluid (Microscint 40, Perkin Elmer) was added and the plates were counted on a scintillation counter (Topcount, Perkin Elmer). Fifty percent inhibitory concentrations (IC50) were calculated using GraphPad Prism version 6 for Mac OS X, GraphPad Software, San Diego Calif. […] Error is reported as standard deviation (SD).
Test [5] has as its system ASCT2. The settings on record: cited from earlier work.
The subject of the next test is HCC1806 cells. Briefly: Cell viability in HCC1806 cells. The settings on record: Homo sapiens, exposure 48 hrs. Type of test: cell-based.
Where [6] appears, read: HEK293 (human) cells, glutamine uptake, mean of at least 3 biological replicates, read-out: IC50 (human).

The values below come from patent publication US10793514B2, “Glutamine transport inhibitors and methods for treating cancer” (Vanderbilt University, priority 2016, dated 2020).

“Also recorded” adds a separate entry of the source. Read-outs that look alike come from different tables or passages of the source.

For `O=C(Cc1cccc(OC(F)(F)F)c1)Nc1ccc(CCCCc2nnc(NC(=O)Cc3ccccn3)s2)nn1` [CB-839, reference compound], in the test with human CRC cell lines, the “EC50, cellular viability” value is reported as “did not exhibit appreciable activity”. For the same compound, the “pERK (independent biochemical assay)” value in [1] is recorded as “not observed”. In the test with HT29 cells, the “GSSG levels and ROS” value is reported as “not observed”. The autophagic flux result in the test on HCC1806 and HT29 cells is on record as “did not lead to elevated autophagic flux”. In the test with HT29 and HCT-116 cells, the “cell viability, single agent” value is listed as “did not decrease cell viability”. For the same compound, in test [2], the organoid viability entry is given as “not significantly affected”.

In the case of `COc1cccc(Oc2ccccc2CN(CC[C@@H](N)C(=O)O)Cc2ccccc2Oc2ccccc2OC)c1` [Compound 5], on ASCT2 [3], the IC50 (in general, the concentration that gives 50% inhibition) is 1.3 µM and the “preference for blocking glutamine transport in rat vs human cell line” value (“preference … vs human cell line” below) is given as “exhibited this preference”. The concentration for half-maximal inhibition (IC50) on ASCT2 [4] (setting [6]) amounted to 57.2 µM.

As for `COc1ccc(Oc2ccccc2CN(CC[C@@H](N)C(=O)O)Cc2ccccc2Oc2ccc(OC)cc2)cc1` [Compound 6], on ASCT2 [3], half-maximal inhibition (IC50) required 8.7 µM and the “preference … vs human cell line” value was “roughly equal potencies in both cells lines”. Besides, the IC50 on ASCT2 [4] (setting [6]) amounted to 11.9 µM.

As to `N[C@H](CCN(Cc1ccccc1Oc1cccc(Cl)c1)Cc1ccccc1Oc1cccc(Cl)c1)C(=O)O` [Compound 7], the IC50 on ASCT2 [4] (setting [6]) was 26 µM.

Consider `N[C@H](CCN(Cc1ccccc1Oc1ccccc1F)Cc1ccccc1Oc1ccccc1F)C(=O)O` [Compound 8], for which the values for the IC50 at ASCT2 [3] and on ASCT2 [4] (setting [6]) were 1.8 µM and 33.8 µM, respectively. The “preference … vs human cell line” value on ASCT2 [3] is reported as “some preference for blocking glutamine transport in the rat cell line”.

Compound `N[C@H](CCN(Cc1ccccc1Oc1cccc(F)c1)Cc1ccccc1Oc1cccc(F)c1)C(=O)O` [Compound 9] gave an IC50 against ASCT2 [3] of 36.3 µM.

As to `Cc1ccc(Oc2ccccc2CN(CC[C@@H](N)C(=O)O)Cc2ccccc2Oc2ccc(F)cc2)cc1` [Compound 10], the IC50 against ASCT2 [3] was found to be 10.5 µM; on ASCT2 [4] (setting [6]), 142 µM. Besides, the “preference … vs human cell line” value at ASCT2 [3] is recorded as “some preference for blocking glutamine transport in the rat cell line”.

Take `N[C@H](CCN(Cc1ccccc1Oc1ccccn1)Cc1ccccc1Oc1ccccn1)C(=O)O` [Compound 11]: the results for the IC50 against ASCT2 [3] and on ASCT2 [4] (setting [6]) were 68.2 µM and 59.6 µM, respectively. Further, the “preference … vs human cell line” value on ASCT2 [3] was “roughly equal potencies in both cells lines”.

As to `COc1cccc(COc2ccccc2CN(CC[C@@H](N)C(=O)O)Cc2ccccc2OCc2cccc(OC)c2)c1` [Compound 12], the half-inhibitory concentration (IC50) amounted to 5.1 µM against ASCT2 [3] and 7.2 µM at ASCT2 [4] (setting [6]).

Take `N[C@H](CCN(Cc1ccccc1OCc1ccccc1Cl)Cc1ccccc1OCc1ccccc1Cl)C(=O)O` [Compound 13]: the IC50 was found to be 18.4 µM on ASCT2 [3] and 40.1 µM on ASCT2 [4] (setting [6]).

As for `N[C@H](CCN(Cc1ccccc1OCc1cccc(O)c1)Cc1ccccc1OCc1cccc(Cl)c1)C(=O)O` [Compound 14], the IC50 came to 12.7 µM against ASCT2 [3] and 50.8 µM at ASCT2 [4] (setting [6]).

Turning to `N[C@H](CCN(Cc1ccccc1OCc1ccc(Cl)cc1)Cc1ccccc1OCc1ccc(Cl)cc1)C(=O)O` [Compound 15], the IC50 is 20.1 µM at ASCT2 [3] and 33.7 µM on ASCT2 [4] (setting [6]).

As for `Cc1ccccc1COc1ccccc1CN(CC[C@@H](N)C(=O)O)Cc1ccccc1OCc1ccccc1C` [Compound 16], the figures for the IC50 against ASCT2 [3] and on ASCT2 [4] (setting [6]) were 41.7 µM and 25.6 µM, respectively.

Regarding `Cc1cccc(COc2ccccc2CN(CC[C@@H](N)C(=O)O)Cc2ccccc2OCc2cccc(C)c2)c1` [Compound 17], the concentration for half-maximal inhibition (IC50) on ASCT2 [3] came to 9 µM.

Take `Cc1ccc(COc2ccccc2CN(CC[C@@H](N)C(=O)O)Cc2ccccc2OCc2ccc(C)cc2)cc1` [Compound 18]: at ASCT2 [3], the midpoint of inhibition, the IC50, lay at 86.4 µM and the “preference … vs human cell line” value is given as “significant preference for inhibiting glutamine uptake in the human form of ASCT2”. Besides, at ASCT2 [4] (setting [6]), the IC50 was found to be 17.5 µM.

As for `N[C@H](CCN(Cc1ccccc1OCc1ccccc1F)Cc1ccccc1OCc1ccccc1F)C(=O)O` [Compound 19], on ASCT2 [3], the midpoint of inhibition, the IC50, lay at 3.3 µM.

`N[C@H](CCN(Cc1ccccc1OCc1ccc(F)cc1)Cc1ccccc1OCc1ccc(F)cc1)C(=O)O` [Compound 20]: half-maximal inhibition against ASCT2 [3] (IC50) required 11.2 µM.

Regarding `N[C@H](CCN(Cc1ccccc1OCc1ccccn1)Cc1ccccc1OCc1ccccn1)C(=O)O` [Compound 21], the concentration for half-maximal inhibition (IC50) at ASCT2 [3] was found to be 8.4 µM; at ASCT2 [4] (setting [6]), 48.3 µM.

Turning to `N[C@H](CCN(Cc1ccccc1OCc1cccnc1)Cc1ccccc1OCc1cccnc1)C(=O)O` [Compound 22], the values for the IC50 against ASCT2 [3] and on ASCT2 [4] (setting [6]) were 17.3 µM and 89.1 µM, respectively.

Turning to `N[C@@H](CCC(=O)Nc1ccc([N+](=O)[O-])cc1)C(=O)O` [GPNA, L-γ-glutamyl-p-nitroanilide], the IC50 at ASCT2 [4] (live HEK-293 cells, read-out: IC50, inhibition of ASCT2-mediated glutamine uptake in human cells) is 1000 µM. Moreover, the “potency as ASCT2 inhibitor (previously reported)” value in the test on ASCT2 [5] is “poor potency and selectivity in human cells; also recorded: modest potency in the low millimolar range”.

Consider `NC(=O)CC[C@H](Nc1ccccc1CN1CCOCC1)C(=O)O` [N-(2-(morpholinomethyl)phenyl)-L-glutamine], for which the “activity against ASCT2 compared to GPNA (previously described)” value with ASCT2 [5] is “three-fold improved activity”.

Regarding `N[C@@H](COC(=O)c1ccc(-c2ccccc2)cc1)C(=O)O` [O-(4-phenylbenzoyl)-L-serine], the Ki at ASCT2 [5] (Albers et al., read-out: apparent affinity) is 30 µM.

`Cc1cccc(COc2ccccc2CN(Cc2ccccc2OCc2cccc(C)c2)C2CCN[C@H](C(=O)O)C2)c1` (stereo partly drawn) [WJB-A-110, (2S)-4-(Bis(2-((3-methylbenzyl)oxy)benzyl)amino)piperidine-2-carboxylic Acid] registered an IC50 in the test on HCC1806 cells of 32 µM.

As for `Cc1cccc(COc2ccccc2CN(Cc2ccccc2OCc2cccc(C)c2)C2CN[C@H](C(=O)O)C2)c1` (stereo partly drawn) [WJB-A-119, (2S)-4-(Bis(2-((3-methylbenzyl)oxy)benzyl)amino)pyrrolidine-2-carboxylic Acid], 23 µM corresponded to half-maximal inhibition with HCC1806 cells (IC50).
